Patent US12122781B2, “Hydrates of polymorphs of 6-(1H-indazol-6-yl)-N-(4-morpholinophenyl)-2,3-dihydroimidazo[1,2-a]pyrazin-8-amine bis-mesylate as Syk inhibitors” (Kronos Bio, Inc., priority 2017, dated 2024)

Key:
Type in all cases: physicochemical
[1] = XRPD analysis of the sample after the DVS experiment (solid form stability to humidity); details: after DVS cycle 5% RH to 95% RH and back at 25° C.
Protocol: X-ray powder diffraction (XRPD) analysis was conducted on a diffractometer (PANalytical XPERT-PRO, PANalytical B. V., Almelo, Netherlands) using copper radiation (Cu Kα, λ=1.541874). Samples were spread evenly on a zero background sample plate. The generator was operated at a voltage of 45 kV and amperage of 40 mA. Slits were Soller 0.02 rad, antiscatter 1.0°, and divergence. Scans were performed from 2 to 40° 2θ with a 0.0167 step size. Data analysis was performed using X′Pert Data Viewer V1.2d (PANalytical B. V., Almelo, Netherlands).
(§1) Hygroscopicity was studied using dynamic vapor sorption (DVS, TA Q5000 SA, TA Instruments, New Castle, DE or DVS, DVS Intrinsic, Surface Measurement Systems, London, UK). A sample (2-20 mg) was placed in an aluminum DVS pan and loaded on the sample side of the twin pan balance. The water sorption and desorption were studied as a function of relative humidity (RH) at 25° C. In 10% RH increments, the relative humidity was increased from 5% RH to 95% RH and then decreased back to 5%. […] Data analysis was performed using Universal Analysis 2000 Version 4.7A (TA Instruments, New Castle, DE) for TA DVS runs and Microsoft Excel for SMS DVS runs.

[2] = Hygroscopicity by dynamic vapor sorption (DVS); details: up to 95% RH at 25° C.; bis-mesylate
Protocol: as §1

[3] = Solid form stability at ambient conditions; details: before KF could be run

SMILES	solid form found by XRPD after the DVS experiment [1]	water absorbed (dynamic vapor sorption) [2]	stability of the polymorphic form at ambient conditions [3]
C1=C(c2ccc3cn[nH]c3c2)N=C(Nc2ccc(N3CCOCC3)cc2)C2=NCCN12.CS(=O)(=O)O.CS(=O)(=O)O [Form XIV, 6-(1H-indazol-6-yl)-N-(4-morpholinophenyl)-2,3-dihydroimidazo[1,2-a]pyrazin-8-amine bis-mesylate]	converted to Form VII	about 35 wt. %	
C1=C(c2ccc3cn[nH]c3c2)N=C(Nc2ccc(N3CCOCC3)cc2)C2=NCCN12.CS(=O)(=O)O.CS(=O)(=O)O [Form XV, 6-(1H-indazol-6-yl)-N-(4-morpholinophenyl)-2,3-dihydroimidazo[1,2-a]pyrazin-8-amine bis-mesylate]	converted to Form VII	~23 wt. %	
C1=C(c2ccc3cn[nH]c3c2)N=C(Nc2ccc(N3CCOCC3)cc2)C2=NCCN12.CS(=O)(=O)O.CS(=O)(=O)O [Form I, 6-(1H-indazol-6-yl)-N-(4-morpholinophenyl)-2,3-dihydroimidazo[1,2-a]pyrazin-8-amine bis-mesylate]	converted to Form VII	about 30 wt. %	
C1=C(c2ccc3cn[nH]c3c2)N=C(Nc2ccc(N3CCOCC3)cc2)C2=NCCN12.CS(=O)(=O)O.CS(=O)(=O)O [Form XIII, 6-(1H-indazol-6-yl)-N-(4-morpholinophenyl)-2,3-dihydroimidazo[1,2-a]pyrazin-8-amine bis-mesylate]	converted to Form VII	~25 wt. %	unstable at ambient conditions
C1=C(c2ccc3cn[nH]c3c2)N=C(Nc2ccc(N3CCOCC3)cc2)C2=NCCN12.CS(=O)(=O)O.CS(=O)(=O)O [Form II, 6-(1H-indazol-6-yl)-N-(4-morpholinophenyl)-2,3-dihydroimidazo[1,2-a]pyrazin-8-amine bis-mesylate]	converted to Form VII	about 30 wt. %	
C1=C(c2ccc3cn[nH]c3c2)N=C(Nc2ccc(N3CCOCC3)cc2)C2=NCCN12.CS(=O)(=O)O.CS(=O)(=O)O [Form XIX, 6-(1H-indazol-6-yl)-N-(4-morpholinophenyl)-2,3-dihydroimidazo[1,2-a]pyrazin-8-amine bis-mesylate]	converted to Form VII	about 28 wt. %	
C1=C(c2ccc3cn[nH]c3c2)N=C(Nc2ccc(N3CCOCC3)cc2)C2=NCCN12.CS(=O)(=O)O.CS(=O)(=O)O [Amorphous form, 6-(1H-indazol-6-yl)-N-(4-morpholinophenyl)-2,3-dihydroimidazo[1,2-a]pyrazin-8-amine bis-mesylate]	converted to Form VII	about 38 wt. %	
C1=C(c2ccc3cn[nH]c3c2)N=C(Nc2ccc(N3CCOCC3)cc2)C2=NCCN12.CS(=O)(=O)O.CS(=O)(=O)O [Form XVIII, 6-(1H-indazol-6-yl)-N-(4-morpholinophenyl)-2,3-dihydroimidazo[1,2-a]pyrazin-8-amine bis-mesylate]	converted to Form VII		
C1=C(c2ccc3cn[nH]c3c2)N=C(Nc2ccc(N3CCOCC3)cc2)C2=NCCN12.CS(=O)(=O)O.CS(=O)(=O)O [Form XVI, 6-(1H-indazol-6-yl)-N-(4-morpholinophenyl)-2,3-dihydroimidazo[1,2-a]pyrazin-8-amine bis-mesylate]	converted to Form VII	~28 wt. %	
C1=C(c2ccc3cn[nH]c3c2)N=C(Nc2ccc(N3CCOCC3)cc2)C2=NCCN12.CS(=O)(=O)O.CS(=O)(=O)O [Form VI, 6-(1H-indazol-6-yl)-N-(4-morpholinophenyl)-2,3-dihydroimidazo[1,2-a]pyrazin-8-amine bis-mesylate]	converted to Form VII	~17 wt. %	
